Results taken from article PMC9898036, “VIP152 is a selective CDK9 inhibitor with pre-clinical in vitro and in vivo efficacy in chronic lymphocytic leukemia” (Leukemia, 2022).

Key:
Experiment in all cases: DiscoverX KINOMEscan kinase profiling (468 assays)
Type in all cases: binding
human kinome [1] = target: human kinome (Homo sapiens, UniProt Q15139); conditions: read-out: Percent Control
Outline: (§1)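 DNA-tagged kinases competed for immobilized biotinylated ligands on streptavidin magnetic beads, with bound kinase quantified by qPCR. VIP152 in DMSO was tested against a DMSO control.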

human kinome [2] = target: human kinome (Homo sapiens, UniProt O14920); conditions: IKK-beta (Entrez IKBKB); 100 nM; read-out: Percent Control
Outline: as §1

human kinome [3] = target: human kinome (Homo sapiens, UniProt Q7L7X3); conditions: kinase TAOK1 (Entrez TAOK1); compound concentration 1000 nM; read-out: Percent Control
Outline: as §1

human kinome [4] = target: human kinome (Homo sapiens, UniProt Q00535); conditions: CDK5; 100 nM; read-out: Percent Control
Outline: as §1

human kinome [5] = target: human kinome (Homo sapiens, UniProt Q8NEB9); conditions: kinase VPS34 (Entrez PIK3C3); compound concentration 1000 nM; read-out: Percent Control
Outline: as §1

human kinome [6] = target: human kinome (Homo sapiens, UniProt Q9HBH9); conditions: MKNK2; 100 nM; read-out: Percent Control
Outline: as §1

human kinome [7] = target: human kinome (Homo sapiens, UniProt P51955); conditions: read-out: Percent Control
Outline: as §1

human kinome [8] = target: human kinome (Homo sapiens, UniProt O15111); conditions: IKK-alpha (Entrez CHUK); 100 nM; read-out: Percent Control
Outline: as §1

human kinome [9] = target: human kinome (Homo sapiens, UniProt P07948); conditions: LYN; 100 nM; read-out: Percent Control
Outline: as §1

human kinome [10] = target: human kinome (Homo sapiens, UniProt Q86YV6); conditions: read-out: Percent Control
Outline: as §1

human kinome [11] = target: human kinome (Homo sapiens, UniProt Q99759); conditions: MAP3K3; 100 nM; read-out: Percent Control
Outline: as §1

human kinome [12] = target: human kinome (Homo sapiens, UniProt P42336, Q546K); conditions: read-out: Percent Control
Outline: as §1

human kinome [13] = target: human kinome (Homo sapiens, UniProt Q8TBX8); conditions: read-out: Percent Control
Outline: as §1

human kinome [14] = target: human kinome (Homo sapiens, UniProt Q16620); conditions: kinase TRKB (Entrez NTRK2); compound concentration 1000 nM; read-out: Percent Control
Outline: as §1

human kinome [15] = target: human kinome (Homo sapiens, UniProt P52564); conditions: MEK6 (Entrez MAP2K6); 100 nM; read-out: Percent Control
Outline: as §1

human kinome [16] = target: human kinome (Homo sapiens, UniProt Q00536); conditions: read-out: Percent Control
Outline: as §1

human kinome [17] = target: human kinome (Homo sapiens, UniProt Q8N4C8); conditions: MINK (Entrez MINK1); 100 nM; read-out: Percent Control
Outline: as §1

human kinome [18] = target: human kinome (Homo sapiens, UniProt Q9HCP0); conditions: CSNK1G1; 100 nM; read-out: Percent Control
Outline: as §1

human kinome [19] = target: human kinome (Homo sapiens, UniProt Q13233); conditions: MAP3K1; 100 nM; read-out: Percent Control
Outline: as §1

human kinome [20] = target: human kinome (Homo sapiens, UniProt P14616); conditions: INSRR; 100 nM; read-out: Percent Control
Outline: as §1

human kinome [21] = target: human kinome (Homo sapiens, UniProt Q9H2K8); conditions: kinase TAOK3 (Entrez TAOK3); compound concentration 1000 nM; read-out: Percent Control
Outline: as §1

human kinome [22] = target: human kinome (Homo sapiens, UniProt Q16539); conditions: read-out: Percent Control
Outline: as §1

human kinome [23] = target: human kinome (Homo sapiens, UniProt P35968); conditions: kinase VEGFR2 (Entrez KDR); compound concentration 1000 nM; read-out: Percent Control
Outline: as §1

human kinome [24] = target: human kinome (Homo sapiens, UniProt P42336, I800L); conditions: read-out: Percent Control
Outline: as §1

human kinome [25] = target: human kinome (Homo sapiens, UniProt O43683); conditions: BUB1; 100 nM; read-out: Percent Control
Outline: as §1

human kinome [26] = target: human kinome (Homo sapiens, UniProt P00533, G719S); conditions: EGFR(G719S); 100 nM; read-out: Percent Control
Outline: as §1

human kinome [27] = target: human kinome (Homo sapiens, UniProt P27361); conditions: ERK1 (Entrez MAPK3); 100 nM; read-out: Percent Control
Outline: as §1

human kinome [28] = target: human kinome (Homo sapiens, UniProt Q32MK0); conditions: MLCK (Entrez MYLK3); 100 nM; read-out: Percent Control
Outline: as §1

human kinome [29] = target: human kinome (Homo sapiens, UniProt O00141); conditions: kinase SGK (Entrez SGK1); compound concentration 1000 nM; read-out: Percent Control
Outline: as §1

human kinome (Homo sapiens, UniProt P51955), sequence (P51955 whole entry): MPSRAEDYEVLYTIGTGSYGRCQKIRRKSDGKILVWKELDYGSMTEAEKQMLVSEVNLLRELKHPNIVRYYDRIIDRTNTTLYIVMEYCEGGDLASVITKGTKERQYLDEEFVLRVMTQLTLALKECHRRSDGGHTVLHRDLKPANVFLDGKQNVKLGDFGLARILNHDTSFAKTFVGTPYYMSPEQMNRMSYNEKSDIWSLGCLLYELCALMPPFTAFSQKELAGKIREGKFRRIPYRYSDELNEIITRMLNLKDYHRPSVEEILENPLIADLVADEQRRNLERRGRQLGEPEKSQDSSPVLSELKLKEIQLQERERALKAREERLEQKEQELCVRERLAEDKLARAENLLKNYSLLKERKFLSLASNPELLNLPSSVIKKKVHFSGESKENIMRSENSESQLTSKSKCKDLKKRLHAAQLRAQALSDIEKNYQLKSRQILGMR
human kinome (Homo sapiens, UniProt P42336, I800L), sequence (P42336 whole entry I800L): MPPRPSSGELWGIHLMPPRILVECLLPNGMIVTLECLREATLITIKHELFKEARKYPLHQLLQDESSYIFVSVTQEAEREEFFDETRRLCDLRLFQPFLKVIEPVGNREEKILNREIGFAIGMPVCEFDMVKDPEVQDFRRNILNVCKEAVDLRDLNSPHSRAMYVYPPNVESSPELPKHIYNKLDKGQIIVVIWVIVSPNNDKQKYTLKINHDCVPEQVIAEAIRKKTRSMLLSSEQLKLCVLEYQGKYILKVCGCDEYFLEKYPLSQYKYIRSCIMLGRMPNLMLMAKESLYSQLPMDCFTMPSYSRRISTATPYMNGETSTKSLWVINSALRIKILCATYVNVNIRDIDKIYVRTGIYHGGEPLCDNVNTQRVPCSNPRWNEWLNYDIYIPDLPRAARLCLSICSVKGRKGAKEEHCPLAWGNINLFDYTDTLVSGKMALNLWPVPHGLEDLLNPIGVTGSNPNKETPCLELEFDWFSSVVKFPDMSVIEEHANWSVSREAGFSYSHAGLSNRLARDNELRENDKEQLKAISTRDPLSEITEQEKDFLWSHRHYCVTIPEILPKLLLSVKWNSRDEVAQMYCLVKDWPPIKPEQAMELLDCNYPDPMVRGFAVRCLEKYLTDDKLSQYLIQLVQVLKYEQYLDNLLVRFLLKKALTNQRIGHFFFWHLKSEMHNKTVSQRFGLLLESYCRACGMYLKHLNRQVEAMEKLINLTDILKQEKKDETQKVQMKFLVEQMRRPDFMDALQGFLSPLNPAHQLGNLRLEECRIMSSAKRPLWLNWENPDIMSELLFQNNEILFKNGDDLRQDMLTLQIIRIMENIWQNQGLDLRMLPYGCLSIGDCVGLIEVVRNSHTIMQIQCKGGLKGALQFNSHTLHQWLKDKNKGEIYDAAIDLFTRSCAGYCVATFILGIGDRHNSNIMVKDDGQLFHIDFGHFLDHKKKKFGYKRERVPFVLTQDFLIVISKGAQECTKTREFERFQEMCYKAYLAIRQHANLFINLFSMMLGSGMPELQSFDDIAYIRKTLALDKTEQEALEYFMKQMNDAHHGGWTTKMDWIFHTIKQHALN
human kinome (Homo sapiens, UniProt Q86YV6), sequence (Q86YV6 whole entry): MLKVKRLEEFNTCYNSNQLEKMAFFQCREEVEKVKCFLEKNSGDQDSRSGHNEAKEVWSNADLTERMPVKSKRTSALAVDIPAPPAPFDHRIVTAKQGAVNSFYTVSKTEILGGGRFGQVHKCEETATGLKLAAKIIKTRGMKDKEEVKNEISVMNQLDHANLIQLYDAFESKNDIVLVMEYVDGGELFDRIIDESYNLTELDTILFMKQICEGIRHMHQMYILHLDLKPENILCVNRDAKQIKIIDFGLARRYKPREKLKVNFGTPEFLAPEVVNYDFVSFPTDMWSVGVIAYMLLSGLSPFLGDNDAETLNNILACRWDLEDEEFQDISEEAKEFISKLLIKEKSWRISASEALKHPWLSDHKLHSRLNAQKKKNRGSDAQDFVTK
human kinome (Homo sapiens, UniProt Q15139), sequence (Q15139 whole entry): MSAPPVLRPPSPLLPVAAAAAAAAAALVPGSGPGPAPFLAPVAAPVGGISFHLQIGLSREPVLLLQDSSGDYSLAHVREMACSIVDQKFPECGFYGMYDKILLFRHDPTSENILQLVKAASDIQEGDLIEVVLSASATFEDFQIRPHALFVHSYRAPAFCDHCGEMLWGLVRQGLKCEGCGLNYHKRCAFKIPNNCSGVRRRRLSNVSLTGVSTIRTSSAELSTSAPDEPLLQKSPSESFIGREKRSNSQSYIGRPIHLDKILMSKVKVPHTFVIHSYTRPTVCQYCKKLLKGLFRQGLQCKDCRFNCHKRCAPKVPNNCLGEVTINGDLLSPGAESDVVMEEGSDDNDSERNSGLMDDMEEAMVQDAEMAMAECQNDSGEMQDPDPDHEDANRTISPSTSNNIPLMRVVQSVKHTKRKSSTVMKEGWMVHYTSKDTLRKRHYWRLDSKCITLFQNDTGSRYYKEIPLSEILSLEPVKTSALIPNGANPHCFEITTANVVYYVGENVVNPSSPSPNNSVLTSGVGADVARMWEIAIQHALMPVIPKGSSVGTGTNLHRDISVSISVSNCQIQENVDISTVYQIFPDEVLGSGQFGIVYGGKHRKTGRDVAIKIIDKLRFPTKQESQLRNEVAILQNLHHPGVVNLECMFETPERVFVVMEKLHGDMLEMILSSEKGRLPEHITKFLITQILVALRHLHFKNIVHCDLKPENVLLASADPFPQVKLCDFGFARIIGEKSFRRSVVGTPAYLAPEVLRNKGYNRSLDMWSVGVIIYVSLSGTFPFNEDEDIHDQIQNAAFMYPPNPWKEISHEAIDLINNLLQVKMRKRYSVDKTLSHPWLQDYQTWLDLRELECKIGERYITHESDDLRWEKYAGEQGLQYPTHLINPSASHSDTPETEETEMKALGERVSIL
human kinome (Homo sapiens, UniProt Q00536), sequence (Q00536 whole entry): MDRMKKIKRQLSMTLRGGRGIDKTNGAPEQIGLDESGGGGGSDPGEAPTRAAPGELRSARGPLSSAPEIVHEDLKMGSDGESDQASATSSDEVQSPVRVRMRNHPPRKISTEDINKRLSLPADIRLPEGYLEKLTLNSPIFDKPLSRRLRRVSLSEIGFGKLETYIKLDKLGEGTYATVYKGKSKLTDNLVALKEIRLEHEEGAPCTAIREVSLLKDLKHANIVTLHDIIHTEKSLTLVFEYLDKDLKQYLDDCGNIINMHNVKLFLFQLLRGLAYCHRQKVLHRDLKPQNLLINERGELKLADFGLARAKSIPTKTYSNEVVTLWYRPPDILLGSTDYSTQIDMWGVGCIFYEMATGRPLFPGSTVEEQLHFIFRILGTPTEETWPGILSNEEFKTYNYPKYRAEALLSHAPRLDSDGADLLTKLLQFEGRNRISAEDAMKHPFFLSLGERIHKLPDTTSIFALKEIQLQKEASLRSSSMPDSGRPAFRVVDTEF
human kinome (Homo sapiens, UniProt Q16539), sequence (Q16539 whole entry): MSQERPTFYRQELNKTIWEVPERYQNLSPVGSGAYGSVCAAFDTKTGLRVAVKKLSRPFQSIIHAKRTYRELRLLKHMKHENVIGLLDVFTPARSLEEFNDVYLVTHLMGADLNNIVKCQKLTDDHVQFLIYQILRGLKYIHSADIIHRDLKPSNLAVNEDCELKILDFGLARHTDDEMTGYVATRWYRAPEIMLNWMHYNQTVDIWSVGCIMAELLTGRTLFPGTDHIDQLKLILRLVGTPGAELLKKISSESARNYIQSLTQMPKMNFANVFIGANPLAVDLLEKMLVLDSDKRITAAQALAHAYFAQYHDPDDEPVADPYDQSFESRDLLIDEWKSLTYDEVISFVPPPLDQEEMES
human kinome (Homo sapiens, UniProt P42336, Q546K), sequence (P42336 whole entry Q546K): as the sequence (P42336 whole entry I800L) above, with Q546K, L800I counted along it
human kinome (Homo sapiens, UniProt Q8TBX8), sequence (Q8TBX8 whole entry): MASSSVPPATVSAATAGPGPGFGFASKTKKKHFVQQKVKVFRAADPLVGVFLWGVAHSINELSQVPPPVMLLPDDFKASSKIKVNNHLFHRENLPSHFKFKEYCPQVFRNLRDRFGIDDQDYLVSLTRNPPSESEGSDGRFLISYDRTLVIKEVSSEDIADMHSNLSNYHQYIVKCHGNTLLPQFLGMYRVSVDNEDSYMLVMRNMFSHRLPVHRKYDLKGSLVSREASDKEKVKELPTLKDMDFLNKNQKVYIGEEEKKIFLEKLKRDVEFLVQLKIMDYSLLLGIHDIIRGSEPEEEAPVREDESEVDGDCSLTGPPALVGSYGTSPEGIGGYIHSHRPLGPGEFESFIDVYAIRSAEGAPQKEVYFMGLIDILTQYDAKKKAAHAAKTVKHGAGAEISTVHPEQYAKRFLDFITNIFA
human kinome (Homo sapiens, UniProt Q32MK0), sequence (Q32MK0 whole entry): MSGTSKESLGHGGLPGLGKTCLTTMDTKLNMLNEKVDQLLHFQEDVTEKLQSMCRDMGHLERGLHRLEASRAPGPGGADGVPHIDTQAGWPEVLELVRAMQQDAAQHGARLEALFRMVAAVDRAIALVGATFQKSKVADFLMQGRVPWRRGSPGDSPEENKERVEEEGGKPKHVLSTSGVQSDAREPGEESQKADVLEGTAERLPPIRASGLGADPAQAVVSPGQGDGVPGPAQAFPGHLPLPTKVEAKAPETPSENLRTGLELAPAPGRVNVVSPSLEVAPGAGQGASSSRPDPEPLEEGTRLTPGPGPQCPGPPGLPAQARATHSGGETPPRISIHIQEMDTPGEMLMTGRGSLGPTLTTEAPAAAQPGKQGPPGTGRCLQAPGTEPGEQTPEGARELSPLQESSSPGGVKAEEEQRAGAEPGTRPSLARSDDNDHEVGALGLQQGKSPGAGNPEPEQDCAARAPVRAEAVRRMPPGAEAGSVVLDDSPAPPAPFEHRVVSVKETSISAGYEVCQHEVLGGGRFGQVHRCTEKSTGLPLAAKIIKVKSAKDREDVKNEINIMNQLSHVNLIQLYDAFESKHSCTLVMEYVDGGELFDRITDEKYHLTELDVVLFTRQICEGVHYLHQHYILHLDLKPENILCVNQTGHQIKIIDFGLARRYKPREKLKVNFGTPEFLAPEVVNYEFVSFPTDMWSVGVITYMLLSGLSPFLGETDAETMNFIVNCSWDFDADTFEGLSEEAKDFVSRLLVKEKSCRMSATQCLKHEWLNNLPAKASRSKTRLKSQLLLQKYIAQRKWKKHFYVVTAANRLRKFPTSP

Q: What does the source list for COc1cc(F)ccc1-c1cc(Nc2cc(CS(C)(=N)=O)ccn2)ncc1F (stereo not shown) [VIP152]?
A: remaining binding at 0.1 µM (human kinome [1]; PRKD1, 100 nM): 71%; remaining binding at 1 µM (human kinome [1]; kinase PRKD1 (Entrez PRKD1), compound concentration 1000 nM): 100%; remaining binding at 0.1 µM (human kinome [2]): 100%; remaining binding at 1 µM (human kinome [3]): 62%; remaining binding at 0.1 µM (human kinome [4]): 100%; remaining binding at 1 µM (human kinome [5]): 100%; remaining binding at 0.1 µM (human kinome [6]): 95%; remaining binding at 0.1 µM (human kinome [7]; NEK2, 100 nM): 100%; remaining binding at 1 µM (human kinome [7]; kinase NEK2 (Entrez NEK2), compound concentration 1000 nM): 84%; remaining binding at 0.1 µM (human kinome [8]): 100%; remaining binding at 0.1 µM (human kinome [9]): 100%; remaining binding at 0.1 µM (human kinome [10]; MYLK4, 100 nM): 100%; remaining binding at 1 µM (human kinome [10]; kinase MYLK4 (Entrez MYLK4), compound concentration 1000 nM): 89%; remaining binding at 0.1 µM (human kinome [11]): 100%; remaining binding at 0.1 µM (human kinome [12]; PIK3CA(Q546K), 100 nM): 100%; remaining binding at 1 µM (human kinome [12]; kinase PIK3CA(Q546K) (Entrez PIK3CA), compound concentration 1000 nM): 96%; remaining binding at 0.1 µM (human kinome [13]; PIP5K2C (Entrez PIP4K2C), 100 nM): 52%; remaining binding at 1 µM (human kinome [13]; kinase PIP5K2C (Entrez PIP4K2C), compound concentration 1000 nM): 82%; remaining binding at 1 µM (human kinome [14]): 30%; remaining binding at 0.1 µM (human kinome [15]): 100%; remaining binding at 0.1 µM (human kinome [16]; PCTK1 (Entrez CDK16), 100 nM): 83%; remaining binding at 1 µM (human kinome [16]; kinase PCTK1 (Entrez CDK16), compound concentration 1000 nM): 24%; remaining binding at 0.1 µM (human kinome [17]): 100%; remaining binding at 0.1 µM (human kinome [18]): 100%; remaining binding at 0.1 µM (human kinome [19]): 100%; remaining binding at 0.1 µM (human kinome [20]): 100%; remaining binding at 1 µM (human kinome [21]): 57%; remaining binding at 1 µM (human kinome [22]; kinase p38-alpha (Entrez MAPK14), compound concentration 1000 nM): 100%; remaining binding at 0.1 µM (human kinome [22]; p38-alpha (Entrez MAPK14), 100 nM): 100%; remaining binding at 1 µM (human kinome [23]): 55%; remaining binding at 0.1 µM (human kinome [24]; PIK3CA(I800L), 100 nM): 100%; remaining binding at 1 µM (human kinome [24]; kinase PIK3CA(I800L) (Entrez PIK3CA), compound concentration 1000 nM): 98%; remaining binding at 0.1 µM (human kinome [25]): 100%; remaining binding at 0.1 µM (human kinome [26]): 100%; remaining binding at 0.1 µM (human kinome [27]): 100%; remaining binding at 0.1 µM (human kinome [28]): 100%; remaining binding at 1 µM (human kinome [29]): 83%
